From article PMC12284294 (iScience, 2025)
Read-outs that look alike come from different tables or passages of the source.

Tests used:
FPR1, FPR2, FPR3, PMN = assay type: cell-based, human
FPR1 [1] = target: T1, FPR1 (Homo sapiens, UniProt P21462); assay type: cell-based
T1 construct: expressed in transfected cells; host or cells: HEK293T
T1 sequence (P21462 1-350): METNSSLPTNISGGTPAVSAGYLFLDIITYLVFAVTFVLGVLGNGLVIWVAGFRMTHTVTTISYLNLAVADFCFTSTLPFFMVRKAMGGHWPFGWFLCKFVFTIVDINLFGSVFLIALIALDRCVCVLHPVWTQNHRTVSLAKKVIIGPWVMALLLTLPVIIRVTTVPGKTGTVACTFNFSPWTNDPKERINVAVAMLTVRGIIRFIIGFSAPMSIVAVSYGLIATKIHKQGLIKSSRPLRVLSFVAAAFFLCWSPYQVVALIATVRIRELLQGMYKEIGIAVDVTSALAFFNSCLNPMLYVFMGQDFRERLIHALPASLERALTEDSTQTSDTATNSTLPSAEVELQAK

[2] = test system: human polymorphonuclear granulocytes (PMN; neutrophils); assay type: cell-based; details: SARS-CoV-2 omicron B.1.1.529 spike pool peptides, 10 µM, PMN, n=6
FPR1 [3] = target: T1, FPR1; assay: cell-based; assay type: binding
FPR2 = target: T2, FPR2 (Homo sapiens, UniProt P25090); assay: cell-based; assay type: binding
T2 construct: expressed in transfected cells; host or cells: HEK293T
T2 sequence (P25090 1-351): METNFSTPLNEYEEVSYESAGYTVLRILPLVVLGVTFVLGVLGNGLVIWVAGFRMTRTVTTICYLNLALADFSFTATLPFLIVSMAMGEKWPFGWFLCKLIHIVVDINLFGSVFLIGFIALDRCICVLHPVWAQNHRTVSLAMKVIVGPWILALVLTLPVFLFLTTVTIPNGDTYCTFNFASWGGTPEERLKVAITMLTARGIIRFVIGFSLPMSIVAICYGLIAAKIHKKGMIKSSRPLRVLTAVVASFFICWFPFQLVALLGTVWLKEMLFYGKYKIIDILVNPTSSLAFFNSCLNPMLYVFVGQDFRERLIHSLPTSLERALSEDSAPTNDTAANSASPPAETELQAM

FPR3 = target: T3, FPR3 (Homo sapiens, UniProt P25089); assay: cell-based; assay type: binding
T3 construct: expressed in transfected cells; host or cells: HEK293T
T3 sequence (P25089 1-353): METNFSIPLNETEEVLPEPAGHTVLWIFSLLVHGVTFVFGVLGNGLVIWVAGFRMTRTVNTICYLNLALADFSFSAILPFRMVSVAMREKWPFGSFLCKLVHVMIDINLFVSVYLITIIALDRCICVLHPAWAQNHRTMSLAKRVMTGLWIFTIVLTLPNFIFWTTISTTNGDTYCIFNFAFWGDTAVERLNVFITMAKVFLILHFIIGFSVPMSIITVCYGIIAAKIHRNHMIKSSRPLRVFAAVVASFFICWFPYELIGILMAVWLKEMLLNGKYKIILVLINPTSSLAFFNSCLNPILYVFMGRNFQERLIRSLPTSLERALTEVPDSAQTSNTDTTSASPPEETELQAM

FPR1 [4] = target: T1, FPR1; assay: biochemical; assay type: binding; details: read-out: IC50 in the BRET assay
[5] = […], it matches an identified peptide or IgG epitope of COVID-19 patients

Row | Compound | Match with activator (region): Receptor (FPR1, FPR2, FPR3, PMN) | Match with activator (region): Receptor (FPR1, FPR2, FPR3, PMN; [5]) | also measured
1 | QVKQIYKTPPIKYFGGFNFSQILPDPS | FPR3 |  | 
2 | DYSVLYNLAPFFTFKCYGVSPTK |  | FPR3 | 
3 | VNHNAQALNTLVKQLSSKFGAISSVLNDIFS | FPR3 |  | 
4 | DYSVLYNLAPFFTFKCYGV |  | PMN | 
5 | LLLQYGSFCTQLKRALTGI | FPR3 |  | 
6 | DGYFKIYSKHTPIIV | FPR2 + FPR3 |  | non-activators of FPR1 and PMNs: FPR1 (FPR1 [1]): non-activators of FPR1 and PMNs; non-activators of FPR1 and PMNs: PMNs [2]: non-activators of FPR1 and PMNs
7 | KVSGNYNYLYRLFRK |  | FPR3 | non-activators of FPR1 and PMNs: FPR1 (FPR1 [1]): non-activators of FPR1 and PMNs; non-activators of FPR1 and PMNs: PMNs [2]: non-activators of FPR1 and PMNs
8 | EQYIKWPWYIWL | All FPRs + PMN |  | 
9 | TYGVGHQPYRVVVLSFELL |  | PMN + FPR1 | 
10 | VLPFNDGVYFASIEKSNIIRGWIFGTT | FPR3 |  | 
11 | CC[C@H](C)[C@H](NC(=O)[C@H](Cc1ccc(O)cc1)NC(=O)[C@H](Cc1c[nH]c2ccccc12)NC(=O)[C@@H]1CCCN1C(=O)[C@H](Cc1c[nH]c2ccccc12)NC(=O)[C@H](CCCCN)NC(=O)[C@@H](NC(=O)[C@H](Cc1ccc(O)cc1)NC(=O)[C@H](CCC(N)=O)NC(=O)[C@@H](N)CCC(=O)O)[C@@H](C)CC)C(=O)N[C@@H](Cc1c[nH]c2ccccc12)C(=O)N[C@@H](CC(C)C)C(=O)O [CV7] |  |  | Kd (FPR1 [3]): 0.014 µM; Kd (FPR2): 0.489 µM; Kd (FPR3): 0.347 µM; IC50 (FPR1 [4]): 5.1 µM
12 | QVKQIYKTPPIKYFG | PMN+ FPR2 | PMN + FPR2 | significant PMN activators (group of the spike peptide pool screening) [2]: significant PMN activators
13 | NFNFNGLKGTGVLTE |  | FPR3 | non-activators of FPR1 and PMNs: FPR1 (FPR1 [1]): non-activators of FPR1 and PMNs; non-activators of FPR1 and PMNs: PMNs [2]: non-activators of FPR1 and PMNs
14 | ITNLCPFDEVFNATR |  | FPR3 | non-activators of FPR1 and PMNs: FPR1 (FPR1 [1]): non-activators of FPR1 and PMNs; non-activators of FPR1 and PMNs: PMNs [2]: non-activators of FPR1 and PMNs
